Assay results as given in paper PMC2213565 (The Journal of General Physiology, 2008).
Where two headings read alike, the source gives them in different places.

Columns and labels:
5-HT3A [1] = target: T1, 5-HT3A (Mus musculus, UniProt P23979); assay: Whole cell patch clamp of HEK293T cells transiently expressing 5-HT3A; format: cell-based; conditions: HEK293T cells expressing 5-HT3A
T1 sequence (P23979 24-489): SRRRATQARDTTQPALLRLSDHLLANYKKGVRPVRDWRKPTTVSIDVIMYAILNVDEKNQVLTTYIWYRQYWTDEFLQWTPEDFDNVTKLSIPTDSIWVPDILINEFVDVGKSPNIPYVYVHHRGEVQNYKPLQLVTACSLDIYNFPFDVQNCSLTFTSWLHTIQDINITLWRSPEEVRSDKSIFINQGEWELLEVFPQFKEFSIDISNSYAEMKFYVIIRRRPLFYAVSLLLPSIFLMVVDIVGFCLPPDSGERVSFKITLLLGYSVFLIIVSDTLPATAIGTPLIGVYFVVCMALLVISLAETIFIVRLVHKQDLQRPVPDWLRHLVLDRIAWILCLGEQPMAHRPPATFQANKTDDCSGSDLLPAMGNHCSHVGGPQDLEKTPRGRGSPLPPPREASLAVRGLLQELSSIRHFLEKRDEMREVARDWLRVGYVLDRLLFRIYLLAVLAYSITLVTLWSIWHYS

5-HT3A-glvM3M4 [2] = target: T2, 5-HT3A-glvM3M4 (Mus musculus, UniProt P23979); assay: Whole cell patch clamp of HEK293T cells transiently expressing 5-HT3A-glvM3M4; format: cell-based
T2 sequence (P23979 24-326 limits assumed): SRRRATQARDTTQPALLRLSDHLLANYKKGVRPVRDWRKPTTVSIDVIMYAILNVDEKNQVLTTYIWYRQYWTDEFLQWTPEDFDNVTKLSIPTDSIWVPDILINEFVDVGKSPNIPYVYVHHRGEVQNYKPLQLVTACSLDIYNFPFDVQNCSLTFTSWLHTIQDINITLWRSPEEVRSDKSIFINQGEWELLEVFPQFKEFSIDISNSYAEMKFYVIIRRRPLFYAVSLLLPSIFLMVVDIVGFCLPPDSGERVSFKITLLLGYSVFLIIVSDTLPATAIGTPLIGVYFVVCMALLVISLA

5-HT3A [3] = target: T1, 5-HT3A; assay: Two-electrode voltage clamp of Xenopus oocytes expressing 5-HT3A wild type; format: cell-based
5-HT3A-glvM3M4 [4] = target: 5-HT3A-glvM3M4 (Mus musculus, UniProt P23979); format: cell-based
mouse 5-HT3A receptors = conditions: competitive antagonist; ref Costall et al., 1987; cited from earlier work

In the case of `NCCc1c[nH]c2ccc(O)cc12` [5-HT, 5-hydroxytryptamine], the “whole cell currents evoked” value (5-HT3A [1]; 5-HT 1 μM) is reported as 1 to 5 nA and the “whole cell currents evoked” value (5-HT3A-glvM3M4 [2]; HEK293T cells expressing 5-HT3A-glvM3M4, 5-HT 1 μM) is reported as 1 to 5 nA.
With picrotoxin the IC50 (5-HT3A [3]; read-out: picrotoxin IC50, 5-HT3A-wt, coapplied with 5-HT EC30 concentration, n = 3) was 60 ± 10 µM, the “fold lower IC50 in 5-HT3A-glvM3M4 than in wild type” value (5-HT3A-glvM3M4 [4]; picrotoxin IC50, 5-HT3A-glvM3M4 versus 5-HT3A-wt) was 10 fold and the IC50 (5-HT3A-glvM3M4 [4]; read-out: picrotoxin IC50, 5-HT3A-glvM3M4, coapplied with 5-HT EC30 concentration, n = 6) was 6.8 ± 1.1 µM.
With `Cc1cccc(C)c1NC(=O)C[N+](C)(C)C` [QX-222] the “inhibition of 5-HT EC70 currents” value (5-HT3A [3]; 5-HT3A-wt, QX-222 20 μM, n = 6) was 80 ± 4% and the “inhibition of 5-HT EC70 currents” value (5-HT3A-glvM3M4 [4]; 5-HT3A-glvM3M4, QX-222 20 μM, n = 6) was 79 ± 2%.
In the case of `Cc1nccn1CC1CCc2c(c3ccccc3n2C)C1=O` (centres unmarked) [ondansetron], the “inhibition of whole cell currents evoked by 1 μM 5-HT” value (5-HT3A [1]; 100 nM ondansetron) is reported as “totally inhibited”, the “inhibition of 5-HT currents” value (5-HT3A [3]; 5-HT3A, EC30 concentration of 5-HT with ondansetron at 1/3 of the 5-HT concentration, n = 3) is reported as 98.2 ± 0.4% and the “inhibition of whole cell currents evoked by 1 μM 5-HT” value (5-HT3A-glvM3M4 [2]; HEK293T cells expressing 5-HT3A-glvM3M4, 100 nM ondansetron) is reported as “totally inhibited”. For the same compound, the “IC50 for inhibition of mouse 5-HT3A receptors” value (mouse 5-HT3A receptors) was “high picomolar” and the “inhibition of 5-HT currents” value (5-HT3A-glvM3M4 [4]; 5-HT3A-glvM3M4, EC30 concentration of 5-HT with ondansetron at 1/3 of the 5-HT concentration, n = 4) was 98.8 ± 0.4%.
Work on `COc1ccc([C@@H]2Sc3ccccc3N(CCN(C)C)C(=O)[C@@H]2OC(C)=O)cc1` [diltiazem] yielded an IC50 (5-HT3A [3]) of 16 ± 1 µM and an IC50 (5-HT3A-glvM3M4 [4]) of 12 ± 3 µM.
